# According to publication PMC6747274, “Multifunctional Peptides from Spanish Dry-Cured Pork Ham: Endothelial Responses and Molecular Modeling Studies” (International Journal of Molecular Sciences, 2019):
# “And” between values parts separate entries of the source, which are not always exact repeats. Equal values may be shown once. “Also recorded” adds a separate entry of the source. Where no end group is shown, it is not given here.
# Legend:
# [1] = system: IL-6 mRNA, EA.hy926 cells; assay: IL-6 mRNA expression by RT-PCR in EA.hy926 cells; format: cell-based, human
# Experimental: (§1) EA.hy926 cells, the hybrid human umbilical vein endothelial cell line, were obtained from the American Type Culture Collection (ATCC® CRL2922™, Rockville, MD, USA). Cells were cultured in high glucose Dulbecco’s Modified Eagle’s Medium (DMEM), containing 10% heat-inactivated fetal bovine serum (FBS, Biowest, Riverside, CA, USA) and 50 U/mL of penicillin and 50 µg/mL streptomycin (Sigma Aldrich Chemical Co., Saint Louis, MO, USA). Cells were grown in 5% CO2 in a humidified air incubator at 37 °C. Subculture was performed when 90% confluence was reached.
# (§2) EA.hy926 were seeded in six-well plates at 0.25 × 10^6 cells/well in DMEM supplemented with 5% FBS. Cells were treated with 300 µM of each peptide for 16 h. Then, 100 ng/mL TNF-α or 300 µM H2O2 were added for an additional 6 h or 24 h, respectively.
# (§3) Total RNA was extracted from EA.hy926 cells using 300 µL Trisure™ (Bioline, Taunton, MA, USA) reagent and Direct-zol™ RNA MiniPrep (Zymo Research Irvine, Irvine, CA, USA) according to the manufacturer’s protocol. […] The mRNA levels of the target genes were quantified by RT-PCR using SensiFAST SYBER Hi-ROX Kit (Bioline, Taunton, MA, USA) with StepOnePlus Real-Time PCR System (Applied Biosystems, Foster City, CA, USA). […]
# (§4) The relative quantification of gene expression was determined by the comparative fold change […] method. […]
# [2] = system: eNOS mRNA, EA.hy926 cells; assay: eNOS mRNA expression by RT-PCR in EA.hy926 cells; format: cell-based, human
# Experimental: as §1, §2
# (§5) Total RNA was extracted from EA.hy926 cells using 300 µL Trisure™ (Bioline, Taunton, MA, USA) reagent and Direct-zol™ RNA MiniPrep (Zymo Research Irvine, Irvine, CA, USA) according to the manufacturer’s protocol. Total RNA was reverse-transcribed into complementary DNA (Sensifast cDNATM Synthesis kit, Bioline, Taunton, MA, USA). The mRNA levels of the target genes were quantified by RT-PCR using SensiFAST SYBER Hi-ROX Kit (Bioline, Taunton, MA, USA) with StepOnePlus Real-Time PCR System (Applied Biosystems, Foster City, CA, USA). Briefly, 5 µL of 1:5 diluted cDNA was added to the qPCR reaction containing 10 μL 2X SensiFAST Mix and 400 nM of each primer in a total volume of 20 μL.
# (§6) Specific and validated primers for human glyceraldehyde-3-phosphate dehydrogenase (GADPH), intercellular adhesion marker-1 (ICAM-1), vascular cell adhesion marker-1 (VCAM-1), endothelial nitric oxide synthase (eNOS), interleukin 6 (IL-6), catalase, SOD (Super Oxide Dismutase), NADPH (Nicotinamide Adenine Dinucleotide Phosphate oxidase) and Bax (proapoptosis regulator) genes were used (Sigma-Aldrich Chemical Co., Saint Louis, MO, USA). […]
# as §4
# EA.hy926 cells = assay: Annexin V / propidium iodide apoptosis and necrosis by FACS; format: cell-based, human; conditions: 300 µM H2O2 alone, three independent experiments, mean ± SD
# Experimental: as §2
# ApoScreen Annexin V Apoptosis Kit-FITC (Southern Biotech, Birmingham, AL, USA) was used to detect the apoptosis rate. After the co-incubation of synthetic peptides and 300 µM H2O2, 0.4 × 10^6 cells were detached and washed in cold PBS, then resuspended in 100 µL Annexin V binding buffer and treated following the manufacturer’s protocol. Annexin V-fluorescein isothiocyanate (FITC) binding was assessed in FL1 channel simultaneously with propidium iodide (FL2 channel). This test discriminates among intact cells (FITC−/PI−), apoptotic cells (FITC+/PI−), and necrotic cells (FITC+/PI+). Assays were performed in triplicate (Table S1).
# BAX mRNA, EA.hy926 cells = assay: BAX mRNA expression by RT-PCR in oxidative conditions; format: cell-based, human; conditions: 300 µM H2O2 alone, 24 h; p = 0.02
# Experimental: as §2
# as §5, with “μL. […]” for “μL.”
# as §4
# [3] = system: protein carbonylation, EA.hy926 cells; assay: Protein carbonylation (Oxyblot immunoblotting); format: cell-based, human; conditions: 300 µM H2O2 alone, 30 min
# Experimental: Protein carbonyl content is the most general and well-used biomarker of severe oxidative protein damage. Cel ls were treated with synthetic pepti des for 16 h before adding 300 µM H2O2 and leaving for additional 30 min. Protein carbonyl groups level s wer e determined by immuno blotting using the Oxyblot Protein Oxidation Detecti on Kit (Millipore Merck, Temecul a, CA, USA) according to the manufacturer’s protocol. PVDF membranes were blocked with 1% BSA in PBS–0.05% Tween 20 (v/v) (PBS-T) for 1 h at room temperature. The blots were incubated overnight at 20 °C with the polyclonal antibody. Subsequently, blots were washed (3–5 times) with PBS-T and incubated with goat anti-rabbit IgG/HRP c onjugate (1∶300 dilution in PBS/BSA) (Sigma-Al drich Chemical Co., Saint Louis, MO, USA) for 1 h at room temperature. […] In this condition, no signal was detected in the PVDF membr anes (data no t shown). The e mitted chemiluminescent signals wer e detected using a di gital imaging system (Im ageQuant LAS500, Thermo FisherScientific Inc., Rockford, IL, USA) after automatic exposition time. Quantitation of the densitometry plots for chemiluminescence detecti on was c arried out using ImageJ software for the analysis of 1D gels. Peaks were drawn from the di stinct western-blot bands, the area were calculated and normalized to co ntrol conditions.
# [4] = system: inflammatory markers (IL-6 and eNOS); conditions: spontaneous hypertensive rats, DNA microarray; cited from earlier work
# From the text: In fact, multifunctional peptides interfere with more than one biological pathway, such as NO production, oxidative stress, and inflammation. […] Our interest in the use of an in vitro model of endothelial dysfunction was to further understand the reg ...
# human ACE = human ACE (Homo sapiens, UniProt P12821); assay: Human ACE inhibition assay (lysate of ACE-transfected EA.hy926 cells, HHL substrate, HPLC)
# [5] = system: ICAM-1 mRNA, EA.hy926 cells; assay: ICAM-1 mRNA expression by RT-PCR in EA.hy926 cells; format: cell-based, human; conditions: 100 ng/mL TNF-α alone, 6 h; p < 0.05
# Experimental: as §1, §2, §3, §4
# [6] = system: VCAM-1 mRNA, EA.hy926 cells; assay: VCAM-1 mRNA expression by RT-PCR in EA.hy926 cells; format: cell-based, human; conditions: 100 ng/mL TNF-α alone, 6 h; p < 0.05
# Experimental: as §1, §2, §5, §6, §4
# [7] = system: ICAM-1 surface expression, EA.hy926 cells; assay: ICAM-1 surface expression by flow cytometry (MFI); format: cell-based, human
# Experimental: as §1, §2
# To measure adhesion molecule content in human endothelial cells by flow cytometry, the cell monolayer was detached and fixed before immunofluorescence labelling. The following antibodies were used per sample: 20 µL anti-ICAM-1/CD54-phycoerythrin (PE) (clone HA58, BD Biosciences, Franklin Lakes, NJ, USA) and 5 µL anti-VCAM-1/CD106-PerCP-Cy5.5 (clone 51–10C9; BD Biosciences, San Jose, CA, USA), according to the manufacturer’s protocol. Stained cells (10,000 events) were examined by flow cytometry (FACS Calibur, Becton Dickinson, Mountain View, CA, USA) in a simultaneous two-color analysis with FL2 (PE) and FL3 (PerCP-Cy5.5) channels. Markers were set according to the negative controls to quantify the percentage of positively stained cells. Mean Fluorescence Intensity (MFI) was calculated for each antigen (MFI of total stained cells-MFI of negative control cells).
# [8] = system: VCAM-1 surface expression, EA.hy926 cells; assay: VCAM-1 surface expression by flow cytometry; format: cell-based, human; conditions: 100 ng/mL TNF-α alone
# Experimental: as §1, §2
# To measure adhesion molecule content in human endothelial cells by flow cytometry, the cell monolayer was detached and fixed before immunofluorescence labelling. […] Markers were set according to the negative controls to quantify the percentage of positively stained cells. Mean Fluorescence Intensity (MFI) was calculated for each antigen (MFI of total stained cells-MFI of negative control cells).
# [9] = system: ICAM-1 protein, EA.hy926 cells; assay: Intracellular ICAM-1 protein by western blot; format: cell-based, human; conditions: 100 ng/mL TNF-α alone
# Experimental: as §2
# Supplementary Material and Methods
# 1.1. Human ACE Inhibitio n Assa y
# Before transfection, the endothelial ACE expressio n level was very low and the p roduct of the enzymatic reaction undete ctable, and so a recombinant construct e ncodi ng the Myc-Tag fused to the ACE ge ne was used. T o overexpress the ACE enzyme, EA.hy926 cel ls were seeded in 24-well plates at 80,000 cells/well and transiently transfec ted with a human Ace ORF mammali an expression plasmid (Sinobiological, Beijing, China) using trans-it X2 reagent ( Myrus®, Madi son, […]
# Wisconsin, USA). […] The effi ciency of […]
# transfecti on was checked by immunofluorescence. Briefly, 48 h post-transfection, cells were fixed with 4% paraformaldehyd e in culture medi um for 15 min at room temperatur e, blocked with 1% bo vine seru m albumin (BSA) in phosph ate buffer for 30 min followed by 0.2% sapo nin for 30 min to permeabil ize the membr ane. […]
# The mRNA level s of the target genes (ICAM-1, VCAM-1, IL-6, eNOS, SOD, catal ase, NADPH, BAX) were quantified by RT-PCR using Se nsiFAST SYBER Hi-ROX Kit (Bioline, Taunton, USA) with StepOnePlus Real-Time PCR Sy stem (Appl ied Bi osystems, Foster City, CA, USA) using speci fi c and vali dated pri mers (Si gma-Al drich Chemical Co., Saint Louis, MO, USA).
# The tetr azolium assay (MTT) was used to estimate the cel l viability in the presence of synthetic pepti des (up to 600 µM) and 300 µM H2O2. […] The formazan crystals formed in the intact cel ls were dissol ved in 200 µL dimethyl sulfoxide (DMSO) for 30 min and the absorbance was measured in a micro plate reader at 570 nm and 620 nm of reference. Results wer e calculated as cel l viability (%) = average optic density (OD) of wells/ave rage OD of control wells. […]
# [10] = 100 ng/mL TNF-α alone, 6 h, p < 0.05
# Chain of human ACE (P12821 30-1306): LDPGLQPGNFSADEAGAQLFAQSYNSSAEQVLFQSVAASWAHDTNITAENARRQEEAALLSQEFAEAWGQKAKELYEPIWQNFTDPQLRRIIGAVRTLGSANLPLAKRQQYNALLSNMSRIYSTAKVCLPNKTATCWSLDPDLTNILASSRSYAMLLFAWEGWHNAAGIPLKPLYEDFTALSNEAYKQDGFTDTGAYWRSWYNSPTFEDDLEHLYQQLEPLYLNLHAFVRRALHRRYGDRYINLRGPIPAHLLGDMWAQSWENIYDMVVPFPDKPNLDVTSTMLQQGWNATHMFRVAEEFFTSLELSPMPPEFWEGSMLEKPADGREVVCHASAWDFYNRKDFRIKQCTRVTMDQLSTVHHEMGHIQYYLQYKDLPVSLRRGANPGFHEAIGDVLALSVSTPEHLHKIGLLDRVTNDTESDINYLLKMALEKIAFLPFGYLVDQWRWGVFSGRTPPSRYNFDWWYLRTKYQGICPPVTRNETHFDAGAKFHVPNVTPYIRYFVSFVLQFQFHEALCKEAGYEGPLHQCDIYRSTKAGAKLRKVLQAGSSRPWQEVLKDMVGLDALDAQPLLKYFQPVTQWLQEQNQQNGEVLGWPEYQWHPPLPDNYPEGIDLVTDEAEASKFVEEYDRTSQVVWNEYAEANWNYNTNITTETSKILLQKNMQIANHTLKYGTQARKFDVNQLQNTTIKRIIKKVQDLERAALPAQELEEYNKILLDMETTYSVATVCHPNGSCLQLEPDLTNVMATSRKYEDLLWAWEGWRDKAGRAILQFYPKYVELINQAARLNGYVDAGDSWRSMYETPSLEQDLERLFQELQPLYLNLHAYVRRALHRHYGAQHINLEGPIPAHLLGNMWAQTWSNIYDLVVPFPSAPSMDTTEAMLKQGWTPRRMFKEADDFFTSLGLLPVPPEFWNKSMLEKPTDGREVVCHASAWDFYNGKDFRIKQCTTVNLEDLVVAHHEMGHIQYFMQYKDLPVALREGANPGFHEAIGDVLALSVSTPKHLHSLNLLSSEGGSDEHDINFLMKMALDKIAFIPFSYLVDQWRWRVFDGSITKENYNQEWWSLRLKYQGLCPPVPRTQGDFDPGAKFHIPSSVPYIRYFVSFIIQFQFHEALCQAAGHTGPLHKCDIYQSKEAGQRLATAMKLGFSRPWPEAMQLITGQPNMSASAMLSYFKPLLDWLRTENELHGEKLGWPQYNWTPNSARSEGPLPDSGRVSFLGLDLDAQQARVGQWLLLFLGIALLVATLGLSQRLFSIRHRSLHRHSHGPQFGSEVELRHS
compound,measurement,setting,value
"OO [H2O2, reference compound]",IL-6 mRNA expression upregulation,"[1]; 300 µM H2O2 alone, 24 h, p = 0.001",1.84 fold
same,eNOS mRNA expression increase,"[2]; 300 µM H2O2 alone, 24 h, p = 0.01",3.3 fold
same,"Necrosis (AnV+/PI+), % cells",EA.hy926 cells; p = 0.01 vs control (1.45 ± 0.24),18.56 ± 3.38% and 18%
same,"Apoptosis (AnV+/PI-), % cells",EA.hy926 cells; p = 0.03 vs control (0.90 ± 0.36),10.37 ± 1.33% and 10%
same,BAX expression increase,"BAX mRNA, EA.hy926 cells",1.5 fold
same,protein carbonylation level,[3],significantly increased
"Ile-Pro-Pro [IPP, milk-derived peptide]",inflammatory markers (IL-6 and eNOS),[4],decrease in inflammatory markers (IL-6 and eNOS)
KPGRP [BP3],IC50,human ACE,486 ± 43.5 µM
KPVAAP [BP1],IC50,human ACE,59.2 ± 3.8 µM
TNF-α,ICAM-1 mRNA expression vs control,[5],increased
same,VCAM-1 mRNA expression vs control,[6],increased
same,IL-6 mRNA expression vs control,[1]; [10],increased
same,eNOS mRNA expression vs control,[2]; [10],decreased
same,ICAM-1 MFI,"[7]; 100 ng/mL TNF-α alone, six independent experiments, mean ± SD, p = 0.0003 vs control (71.36 ± 8.31)",1271.91 ± 158.54
same,ICAM-1 MFI on cell surface (in words),"[7]; TNF-α alone vs control, p = 0.0003",increase
same,VCAM-1 surface staining after TNF-α,[8],undetected; also recorded: hardly detectable
same,expression of 82–85 kDa protein corresponding to ICAM-1 (western blot),[9],induced
"Val-Pro-Pro [VPP, milk-derived peptide]",inflammatory markers (IL-6 and eNOS),[4],decrease in inflammatory markers (IL-6 and eNOS)
